In patent US20210393574A1, “USE OF C[…] IN NEURO[…]” (HANYI BIO-TECHNOLOGY (BEIJING) CO., LTD., priority 2018, published 2021):
Where a name gives a salt, the structure may show the parent alone.

Columns and labels:
guinea pigs = assay: Impact on the itch-causing effect of histamine phosphate (itch-causing threshold); type: in vivo; conditions: for alleviation of the itch-causing effect of histamine phosphate (in words): administration alone; for itch-causing threshold: oral, 3 consecutive days
[1] = tested on: patients with diagnosed neurodermatitis; assay: Clinical study of cannabinoid compound for neurodermatitis; type: in vivo, human; conditions: 2 weeks; for Cured (number of patients, efficacy index >90%) / effective (number of patients, efficacy index 20-60%) / excellently effective (number of patients, efficacy index 61-89%) / ineffective (number of patients, efficacy index <20%): orally once per day at bedtime, n=10; for clinical efficacy in neurodermatitis (in words): patients, orally once per day
5-HT1A receptors = target: T1, 5-HT1A receptors (Mus musculus, UniProt Q64264); conditions: possibly through activation of 5-HT1A receptors; cited from earlier work
T1 construct: host or cells: mice (in vivo)
T1 sequence (Q64264 1-421): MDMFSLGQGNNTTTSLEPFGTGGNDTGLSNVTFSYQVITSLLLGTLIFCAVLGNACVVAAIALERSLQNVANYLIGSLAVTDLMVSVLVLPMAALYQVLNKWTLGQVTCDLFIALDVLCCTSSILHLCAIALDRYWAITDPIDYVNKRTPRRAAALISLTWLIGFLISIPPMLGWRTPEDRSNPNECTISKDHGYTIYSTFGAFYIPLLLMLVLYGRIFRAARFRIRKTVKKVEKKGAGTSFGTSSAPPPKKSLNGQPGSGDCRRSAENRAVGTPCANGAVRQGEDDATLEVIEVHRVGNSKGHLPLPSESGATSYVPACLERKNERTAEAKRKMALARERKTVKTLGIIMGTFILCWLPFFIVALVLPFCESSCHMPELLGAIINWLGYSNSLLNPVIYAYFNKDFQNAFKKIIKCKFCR

[2] = 200 mg of cannabidiol (Embodiment 1)
[3] = 25 mg/d of doxepin hydrochloride
[4] = 100 mg of tetrahydrocannabinol (Embodiment 3)

For C=C(C)[C@@H]1CCC(C)=C[C@H]1c1c(O)cc(CCCCC)cc1O [cannabidiol], the “alleviation of the itch-causing effect of histamine phosphate (in words)” value (guinea pigs) was “significantly alleviates”, the itch-causing threshold (guinea pigs; 50 mg/day) was 90.24 ± 45.98 µL and the itch-causing threshold (guinea pigs; 200 mg/day) was 96.55 ± 42.34 µL. The itch-causing threshold (guinea pigs; 400 mg/day) was 117.67 ± 44.67 µL, the “Cured (number of patients, efficacy index >90%)” value [1, 2] was 1 and the “effective (number of patients, efficacy index 20-60%)” value [1, 2] was 6. The “excellently effective (number of patients, efficacy index 61-89%)” value [1, 2] was 3, the “ineffective (number of patients, efficacy index <20%)” value [1, 2] was 0 and the “clinical efficacy in neurodermatitis (in words)” value [1] was “have clinical efficacy in neurodermatitis”. The “antidepressant activity in mice (in words)” value (5-HT1A receptors) was “has antidepressant activity in mice”.

For C=C(C)[C@@H]1CCC(C)=C[C@H]1c1c(O)cc(CCC)cc1O [cannabidivarin], the itch-causing threshold (guinea pigs; 40 mg/day) was 56.23 ± 45.87 µL, the itch-causing threshold (guinea pigs; 80 mg/day) was 59.55 ± 39.84 µL and the itch-causing threshold (guinea pigs; 100 mg/day) was 56.89 ± 34.25 µL.

For CN(C)CCC(c1ccc(Cl)cc1)c1ccccn1 (stereo not drawn) [chlorphenamine maleate, reference compound], the itch-causing threshold (guinea pigs; 10 mg/day) was 127.03 ± 54.05 µL.

For CN(C)CCC=C1c2ccccc2COc2ccccc21 [doxepin hydrochloride, reference compound], the “Cured (number of patients, efficacy index >90%)” value [1, 3] was 0, the “effective (number of patients, efficacy index 20-60%)” value [1, 3] was 3 and the “excellently effective (number of patients, efficacy index 61-89%)” value [1, 3] was 6. For the same molecule, the “ineffective (number of patients, efficacy index <20%)” value [1, 3] was 1.

With CCCCCc1cc(O)c2c(c1)OC(C)(C)[C@@H]1CCC(C)=C[C@@H]21 [tetrahydrocannabinol] the “alleviation of the itch-causing effect of histamine phosphate (in words)” value (guinea pigs) was “significantly alleviates”, the itch-causing threshold (guinea pigs; 40 mg/day) was 90.65 ± 32.08 µL and the itch-causing threshold (guinea pigs; 80 mg/day) was 92.10 ± 50.78 µL. For the same molecule, the itch-causing threshold (guinea pigs; 100 mg/day) was 94.98 ± 48.96 µL, the “Cured (number of patients, efficacy index >90%)” value [1, 4] was 1 and the “effective (number of patients, efficacy index 20-60%)” value [1, 4] was 6. For the same molecule, the “excellently effective (number of patients, efficacy index 61-89%)” value [1, 4] was 2, the “ineffective (number of patients, efficacy index <20%)” value [1, 4] was 1 and the “clinical efficacy in neurodermatitis (in words)” value [1] was “have clinical efficacy in neurodermatitis”.

In the case of CCCc1cc(O)c2c(c1)OC(C)(C)[C@@H]1CCC(C)=C[C@@H]21 [tetrahydrocannabinovarin], the itch-causing threshold (guinea pigs; 5 mg/day) was 50.45 ± 45.67 µL, the itch-causing threshold (guinea pigs; 10 mg/day) was 56.43 ± 34.18 µL and the itch-causing threshold (guinea pigs; 20 mg/day) was 55.23 ± 40.92 µL.
